Reference: PMC6472001, “Phenolic Compounds from Humulus lupulus as Natural Antimicrobial Products: New Weapons in the Fight against Methicillin Resistant Staphylococcus aureus, Leishmania mexicana and Trypanosoma brucei Strains” (Molecules, 2019)
Like-named read-outs stand apart in the source and are kept apart here.

Legend:
[1] = test system: WI-38 cells (non-cancer lung fibroblasts); test: Cytotoxicity / antiproliferative effect; assay type: cell-based, human
Experimental: (§1) Several human cell lines were used for the cytotoxic bioassays: non-cancer lung fibroblasts (WI-38), hepatocellular carcinoma (Hep-G2), osteosarcoma (MG-63) and the mouse monocyte macrophage J774. Cells were seeded into wells of a 96-well microplate in a Gibco™ Dulbecco’s modified eagles medium (DMEM), except for MG-63 which were cultivated in a minimum essential medium (MEM) (ThermoFisher Scientific, Illkirch-Graffenstaden, France). Both media were enriched with 10% FBS (ThermoFisher Scientific, France) and some antibiotics (mixture penicillin/streptomycin 100 UI/mL, Sigma Aldrich). After one or two days at 37 °C (5% of CO2), wells were emptied by suction. Cells were then treated with hops compounds (xanthohumol, desmethylxanthohumol, humulone, lupulone) in DMSO at 0.2% in the culture medium, to obtain a final volume of 100 µL in wells (negative control: 0.2% DMSO). Camptothecin was used as a positive control. After 48 to 72 h exposure, culture medium was replaced by 10% of Alamar blue or 3-(4,5-dimethylthiazol-2-yl)-2,5-diphenyltetrazolium bromide (MTT) in the medium (ThermoFisher Scientific®, Illkirch, France) and plates were incubated the time necessary to the reaction. Results were measured respectively by fluorescence (excitation 530 nm and emission 590 nm) or by optical density at 550 nm. The IC50 of each product was determined using GraphPad Prism (version 5.01).

[2] = test system: Hep-G2 cells (hepatocellular carcinoma); test: Cytotoxicity / antiproliferative effect; assay type: cell-based, human
Experimental: as §1

S. aureus T28.1 (MRSA) = test: Broth microdilution MIC; assay type: cell-based, Staphylococcus aureus
Experimental: (§2) The protocol employed was inspired by Abedini et al. with some modifications. Products were solubilized in DMSO and serially diluted two-fold in MH medium. A bacterial suspension at 10^5 CFU/mL was added to obtain a final volume of 200 µL. Final phenolic product concentrations in wells ranged from 625 to 2.4 µg/mL (exception for lupulone for which dilutions were continued until 0.3 µg/mL). […] Plates were incubated overnight with stirring (60 rpm) at 37 °C.
For the following experiments, the MRSA strain T28.1, isolated from a pathological sample of osteitis, was used. It was previously characterized by DNA biochips, which allowed highlighting some β-lactamases and the SCC-mec genes confirming the methicillin resistance. Moreover, genes for enzymes and proteins involved in the capsule biosynthesis (capH5, capJ5 and capK5) and several intracellular adhesion proteins implicated in biofilm formation (icaA, icaC and icaD) were present.

S. aureus T28.1 biofilm [3] = test: Anti-biofilm: destruction of preformed biofilm on artificial surface; assay type: cell-based, Staphylococcus aureus
Experimental: (§3) These experiments were inspired and adapted from Liu et al.. They were performed using a 96-well microplate with a flat bottom.
The effect was also evaluated after the biofilm formation in order to evaluate if the hop phenolic compounds are able to destroy it. A first culture of 24 h at 37 °C with 190 µL of BHI medium and 10 µL of a 10^5 CFU/mL bacterial suspension allowed producing the biofilm. Wells were voided and washed with PBS. The biofilm was then treated with xanthohumol, desmethylxanthohumol or lupulone diluted at 5% in the BHI medium to obtain a final volume of 200 µL. Plates were incubated for 24 h at 37 °C, then voided and colored with crystal violet as above.

[4] = test system: MG-63 cells (osteosarcoma); test: cells; assay type: cell-based, human
Experimental: as §1

S. aureus T25.10 (MRSA) = test: Broth microdilution MIC; assay type: cell-based, Staphylococcus aureus; details: S. aureus T25.10 (MRSA)
Experimental: as §2

S. aureus 08143 (MSSA) = test: Broth microdilution MIC; assay type: cell-based, Staphylococcus aureus; details: S. aureus 08143 (MSSA)
Experimental: as §2

S. aureus T26A4 (MSSA) = test: Broth microdilution MIC; assay type: cell-based, Staphylococcus aureus; details: S. aureus T26A4 (MSSA)
Experimental: as §2

S. aureus T28.1 = test: Kill curves; assay type: cell-based, Staphylococcus aureus
Experimental: This experiment allowed following in time the effect of the product on a growing bacterial population, highlighting the bactericidal or bacteriostatic effect. Stock solutions of xanthohumol, desmethylxanthohumol and lupulone were prepared in DMSO 20 times more concentrated than the desired final concentrations (MIC/4 to 4xMIC). An aliquot of 0.5 mL of purified product in DMSO was added to 8.5 mL of brain heart infusion (BHI) medium (Oxoid, UK). 1 mL of bacterial suspension at 10^5 CFU/mL was then introduced to the culture tube. A 5% DMSO control served as a negative control and was performed at each test. Culture tubes were incubated at 37 °C for 24 h. Counts were made every 2 h until 8 h and at 24 h by plating aliquots of serial tenfold dilutions on MHA. The determined bacterial concentrations were then converted into log(CFU/mL) and were expressed as a function of time. The detection threshold of this method was 10 CFU/mL and 1 log(CFU/mL) on graphics.

S. aureus T28.1 biofilm [5] = test: Anti-biofilm: biofilm formation on artificial surface; assay type: cell-based, Staphylococcus aureus
Experimental: as §3
First, the effect of xanthohumol, desmethylxanthohumol and lupulone was assessed on the biofilm formation: 180 µL of BHI medium containing glucose at 10 mg/mL was added to each well of a 96-well microplate with 10 µL of the product previously solubilized in DMSO and 10 µL of a 10^5 CFU/mL bacterial suspension. The maximum concentration in DMSO was 5%. Final concentrations of purified products were from MIC/4 to 4 × MIC. After 24 h incubation at 37 °C, wells were voided and washed 3 times with phosphate buffered saline solution (PBS, Sigma-Aldrich, Saint-Quentin Fallavier, France). Plates were then dried and 150 µL of crystal violet solution at 20 mg/mL in MeOH (Sigma-Aldrich®, Saint-Quentin Fallavier, France) were added for 15 min. After removing crystal violet, 150 µL of EtOH were added to solubilize crystal violet present in adherent bacteria. The optical density was read at 570 nm.

[6] = test system: J774 cells (monocyte macrophage); test: Cytotoxicity / antiproliferative effect; assay type: cell-based, mouse
Experimental: as §1

[7] = Homo sapiens, read-out: IC50 ± SD
[8] = Homo sapiens, value in parentheses, read-out: IC50 (converted)
[9] = Homo sapiens, HepG2, read-out: IC50 ± SD
[10] = Homo sapiens, HepG2, value in parentheses, read-out: IC50 (converted)
[11] = Staphylococcus aureus, S. aureus T28.1 (MRSA), read-out: MIC
[12] = Staphylococcus aureus, S. aureus T28.1 (MRSA), value in parentheses, read-out: MIC
[13] = Homo sapiens, MG-63, read-out: IC50 ± SD
[14] = Homo sapiens, MG-63, value in parentheses, read-out: IC50 (converted)
[15] = Staphylococcus aureus, read-out: MIC
[16] = Staphylococcus aureus, value in parentheses, read-out: MIC
[17] = Mus musculus, read-out: IC50 ± SD
[18] = Mus musculus, value in parentheses, read-out: IC50 (converted)
[19] = value in parentheses, read-out: IC50 (converted)
[20] = value in parentheses, read-out: MIC

CC(C)=CCc1c(O)cc(O)c(C(=O)/C=C/c2ccc(O)cc2)c1O [DMX, desmethylxanthohumol]
IC50 [1, 7]: 60.7 ± 2.5 µg/mL
IC50 [1, 8]: 178 µM
IC50 [2, 9]: 22.4 ± 2.9 µg/mL
IC50 [2, 10]: 65.9 µM
MIC (S. aureus T28.1 (MRSA); [11]): 39 µg/mL
MIC (S. aureus T28.1 (MRSA); [12]): 115 µM
Biofilm destruction (S. aureus T28.1 biofilm [3]; MIC/4): 81%
IC50 [4, 13]: 39.5 ± 3.3 µg/mL
IC50 [4, 14]: 116 µM
MIC (S. aureus T25.10 (MRSA); [15]): 19.5 µg/mL
MIC (S. aureus T25.10 (MRSA); [16]): 57.3 µM
MIC (S. aureus 08143 (MSSA); [15]): 39 µg/mL
MIC (S. aureus 08143 (MSSA); [16]): 115 µM
MIC (S. aureus T26A4 (MSSA); [15]): 39 µg/mL
MIC (S. aureus T26A4 (MSSA); [16]): 115 µM
Bacterial population reached (detection threshold) (S. aureus T28.1; 2 × MIC, after 24 h): 1 log(CFU/mL)
Biofilm formation on artificial surface (S. aureus T28.1 biofilm [5]; sub-inhibitory concentrations): significant inhibition
IC50 [6, 17]: 9.7 ± 1 µg/mL
IC50 [6, 18]: 28.5 µM

COc1cc(O)c(CC=C(C)C)c(O)c1C(=O)/C=C/c1ccc(O)cc1 [XN, xanthohumol]
IC50 [1, 7]: 6.9 ± 0.5 µg/mL
IC50 [1, 8]: 19.5 µM
IC50 [2, 9]: 2.5 ± 0.8 µg/mL
IC50 [2, 10]: 7.1 µM
MIC (S. aureus T28.1 (MRSA); [11]): 9.8 µg/mL
MIC (S. aureus T28.1 (MRSA); [12]): 27.7 µM
Biofilm destruction (S. aureus T28.1 biofilm [3]; at the MIC and above): non-dose-dependent activity
IC50 [4, 13]: 10.4 ± 2.6 µg/mL
IC50 [4, 14]: 29.4 µM
MIC (S. aureus T25.10 (MRSA); [15]): 9.8 µg/mL
MIC (S. aureus T25.10 (MRSA); [16]): 27.7 µM
MIC (S. aureus 08143 (MSSA); [15]): 19.5 µg/mL
MIC (S. aureus 08143 (MSSA); [16]): 55 µM
MIC (S. aureus T26A4 (MSSA); [15]): 9.8 µg/mL
MIC (S. aureus T26A4 (MSSA); [16]): 27.7 µM
Decrease of the bacterial population (S. aureus T28.1; 2xMIC, first 4 h): around 3 log(CFU/mL)
Decrease of the bacterial population (S. aureus T28.1; MIC/2, first 6 h): 0.5 log(CFU/mL)
Decrease of the bacterial population (S. aureus T28.1; at the MIC, during 24 h): 2 log(CFU/mL)
Biofilm formation on artificial surface (S. aureus T28.1 biofilm [5]; at the MIC): totally inhibited
Inhibition of biofilm formation (S. aureus T28.1 biofilm [5]; at the MIC): ~100%
IC50 [6, 17]: 3.4 ± 0.5 µg/mL
IC50 [6, 18]: 9.6 µM

lupulone
IC50 ± SD [1]: 1.1 ± 0.0 µg/mL
IC50 [1, 19]: 2.6 µM
IC50 ± SD [2]: 1.2 ± 0.5 µg/mL
IC50 [2, 19]: 2.9 µM
MIC (S. aureus T28.1 (MRSA); S. aureus T28.1 (MRSA)): 1.2 µg/mL
MIC (S. aureus T28.1 (MRSA); S. aureus T28.1 (MRSA), value in parentheses, read-out: MIC): 2.9 µM
MIC (S. aureus T28.1 (MRSA); strain MRSA T28.1): 1.2 µg/mL
Biofilm destruction (S. aureus T28.1 biofilm [3]; MIC/4): 62.8%
cell viability [4]: ~100%
IC50 ± SD ([4]; MG-63): 4.3 ± 0.4 µg/mL
IC50 ([4]; MG-63, value in parentheses, read-out: IC50 (converted)): 10.4 µM
selectivity index ([4]; antibacterial activity compared to cytotoxicity against MG-63): > 4
MIC (S. aureus T25.10 (MRSA)): 0.6 µg/mL
MIC (S. aureus T25.10 (MRSA); [20]): 1.45 µM
MIC (S. aureus 08143 (MSSA)): 1.2 µg/mL
MIC (S. aureus 08143 (MSSA); [20]): 2.9 µM
MIC (S. aureus T26A4 (MSSA)): 0.6 µg/mL
MIC (S. aureus T26A4 (MSSA); [20]): 1.45 µM
Reduction between the control and 2 × MIC (S. aureus T28.1; 2 × MIC): about 3 log(CFU/mL)
Kill curve effect at 4 × MIC (S. aureus T28.1; 4 × MIC): slightly decreased the bacterial population
Biofilm formation on artificial surface (S. aureus T28.1 biofilm [5]; sub-inhibitory concentrations): significant inhibition
IC50 ± SD [6]: 1.5 ± 0.1 µg/mL
IC50 [6, 19]: 3.6 µM
